Experimental data taken from patent US20250032573A1, “IMMUNITY-ENHANCING PEPTIDE ANALOGS AND USES THEREOF” (RESEARCH & BUSINESS FOUNDATION SUNGKYUNKWAN UNIVERSITY, priority 2023, published 2025).
Numbered stars: 1 amine (or outer) side, 2 acyl side, 3 side chain; on linkers, the order of the positions; unused ones are H or OH. Square brackets hold non-standard residues; d marks the D form. Peptide text beside a SMILES is read from it. X1 = CSCCN(CC(=O)[*:2])[*:1]

Assays:
FIG. 17 = assay: FIG. 17
Text: Table printed on a drawing sheet, FIG. 17

【FIG 16】 = assay: 【FIG 16】
Text: Table printed on a drawing sheet, 【FIG 16】

neutrophils [1] = assay: Neutrophil chemotaxis assay using a Boyden chamber; format: cell-based
Experimental: To investigate the effect of the WKYMVm peptide analogs on the regulation of immune cell mobility, which a representative function of FPR, a chemotaxis assay was performed using a Boyden chamber.
To measure the in vitro innate immune activity of four peptides comprising one non-natural β^3-amino acid residue, the effect of enhancing neutrophil mobility was measured.

neutrophils [2] = assay: Superoxide anion (ROS) production in neutrophils; format: cell-based
Experimental: The effect of superoxide anion production in neutrophils by the peptoid-comprising analogs in which a peptoid residue was substituted for K, Y, and M in the structure of WKYMVm was measured.

neutrophils [3] = tested on: neutrophils
neutrophils [4] = assay: Degranulation activity of neutrophils (beta-hexosaminidase activity); format: cell-based
Experimental: The degranulation activity of neutrophils by the analogs in which each amino acid in the structure of WKYMVm was substituted with a β-amino acid was compared and analyzed by measuring beta-hexosaminidase activity.
The degranulation activity of neutrophils by the peptoid-containing analogs in which a peptoid residue was substituted for K, Y, and M in the structure of WKYMVm was measured.

FPR1 = FPR1 (Homo sapiens, UniProt P21462); assay: cell-based; conditions: FPR1-expressing RBL-2H3 cell line
FPR1, sequence (P21462 whole entry): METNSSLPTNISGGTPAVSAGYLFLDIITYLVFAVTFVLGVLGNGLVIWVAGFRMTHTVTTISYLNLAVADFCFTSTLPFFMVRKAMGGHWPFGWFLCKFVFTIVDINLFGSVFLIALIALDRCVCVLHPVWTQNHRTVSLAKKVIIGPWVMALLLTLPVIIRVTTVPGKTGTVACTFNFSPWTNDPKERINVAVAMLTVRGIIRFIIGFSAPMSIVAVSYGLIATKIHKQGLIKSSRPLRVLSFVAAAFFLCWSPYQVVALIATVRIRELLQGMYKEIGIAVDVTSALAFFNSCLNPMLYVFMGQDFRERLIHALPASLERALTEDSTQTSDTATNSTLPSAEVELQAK
Experimental: To investigate whether activation of FPR1, which is important in regulating the activity of innate immune cells, is induced by the WKYMVm peptide analogs, changes in calcium ions were measured in RBL-2H3 cell line, a type of mast cell that artificially expressed FPR1. […] On the other hand, an increase in intracellular calcium ions by WKYMVβm (V is a β-amino acid) through activation of FPR1 was not observed.

[5] = tested on: neutrophils isolated from mouse bone marrow; assay: Cytokine secretion of neutrophils by ELISA, with or without LPS; format: cell-based; conditions: 1 μM
Experimental: Neutrophils regulate the activity of other immune cells through the production of various types of cytokines. To investigate the effect of the WKYMVm peptide analogs on regulating cytokine production in neutrophils, […], and 24 hours later, the supernatants were collected and subjected to an enzyme-linked immunosorbent assay (ELISA) to measure the amount of cytokine secretion.

FPR2 = FPR2 (Homo sapiens, UniProt P25090); assay: cell-based; conditions: FPR2-expressing RBL-2H3 cell line
FPR2, sequence (P25090 whole entry): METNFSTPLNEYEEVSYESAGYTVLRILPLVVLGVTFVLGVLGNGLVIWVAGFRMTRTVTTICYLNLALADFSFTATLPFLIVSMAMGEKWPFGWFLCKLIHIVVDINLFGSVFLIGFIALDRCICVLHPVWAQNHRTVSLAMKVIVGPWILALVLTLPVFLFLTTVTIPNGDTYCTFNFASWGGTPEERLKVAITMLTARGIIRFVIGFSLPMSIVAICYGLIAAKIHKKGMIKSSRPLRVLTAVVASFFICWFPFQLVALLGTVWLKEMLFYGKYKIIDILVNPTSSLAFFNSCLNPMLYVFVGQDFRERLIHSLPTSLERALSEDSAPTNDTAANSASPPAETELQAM
Experimental: To investigate whether activation of FPR2 is induced by the WKYMVm peptide analogs, changes in calcium ions were measured in RBL-2H3 cell line that artificially expressed FPR2.

Molecule	Half-Life (FIG. 17)	Half-Life (【FIG 16】)	effect of enhancing neutrophil mobility, compared with the WKYMVm peptide (neutrophils [1])	neutrophil mobility at 1 μM (neutrophils [1]; 1 μM)	neutrophil mobility at a low concentration (neutrophils [1]; low concentration)	superoxide anion production in neutrophils (neutrophils [2])	calcium ion-increasing effect in neutrophils (neutrophils [3])	degranulation activity of neutrophils (neutrophils [4])	increase in intracellular calcium ions through activation of FPR1 (in words) (FPR1)	effect in regulating the neutrophil activity (LPS-induced cytokines) [5]	increase in intracellular calcium ions through activation of FPR2 (in words) (FPR2)
WKYMVm (W)	2.0 h	2.6 h									
CSCC[C@H](NC(=O)[C@H](Cc1ccc(O)cc1)NC(=O)[C@H](CCCCN)NC(=O)[C@@H](N)Cc1c[nH]c2ccccc12)C(=O)N[C@H](CC(=O)N[C@H](CCSC)C(N)=O)C(C)C [WKYMVβm]			weak activity only at high concentrations	highly active neutrophil mobility promotion effect was induced	not promoted	did not induce superoxide anion production	not exhibited	did not induce the degranulation activity of neutrophils	not observed	minimal effect	not observed
CSCC[C@@H](NC(=O)[C@@H](NC(=O)CN(CCSC)C(=O)[C@H](Cc1ccc(O)cc1)NC(=O)[C@H](CCCCN)NC(=O)[C@@H](N)Cc1c[nH]c2ccccc12)C(C)C)C(N)=O [M peptoid] (H-WKY[X1]V[dM]-NH2)	2.5 h					effectively promote superoxide anion production		promoted the degranulation activity of neutrophils to the extent similar to the WKYMVm peptide			
